melting point: 203.8 to 205.7 °C
Structure (SMILES): CS(=O)(=O)Nc1ccc2c(c1)S(=O)(=O)N=C(C1=C(O)[C@@H]3C4CCC(CC4)[C@@H]3N(Cc3ccc(F)cc3)C1=O)N2

Source: US8815847B2, “[1,2,4]thiadiazine 1,1-dioxide compounds for lowering serum uric acid” (Anadys Pharmaceuticals, Inc., priority 2011, dated 2014)
